Laboratory results from US6713512B1, “Uses of kombic acid as an anticancer and cholesterol-lowering agent” (priority 2001, dated 2004).
Converted amounts (≈) assume the structure as drawn. “And” between values parts separate entries of the source, which are not always exact repeats. Equal values may be shown once. Read-outs that look alike come from different tables or passages of the source.

Assays:
[1] = system: Rat liver microsomes lipid peroxidation; experiment: Lipid peroxidation in rat liver microsomes induced by ascorbic acid and ferrous sulfate (MDA/thiobarbituric acid); type: biochemical; conditions: for IC50: concentration required to inhibit lipid peroxidation by 50%, obtained by plotting
Protocol: Rat liver microsomes, previously incubated with or without inhibitor, were treated with ascorbic acid and ferrous sulfate to induce lipid peroxidation. The extent of lipid peroxidation was determined by the amount of malondialdehyde produced, which was determined by reaction with thiobarbituric acid.
Biological specimens contain a mixture of thiobarbituric acid reactive substances (TBARS), including lipid hydroperoxides and aldehydes, which increase as a result of oxidative stress. TBARS return to normal levels over time, depending upon the presence of antioxidants. In practice, TBARS are expressed in terms of malondialdehyde (MDA) equivalents. In this assay, an MDA standard is used to construct a standard curve against which unknown samples can be plotted. The presence of this compound is measured by fluorometry or spectrophotometry.

[2] = system: Human low density lipoprotein; experiment: Copper-induced lipid peroxidation of human low density lipoprotein (MDA/thiobarbituric acid); type: biochemical; conditions: for antioxidant activity compared with natural vitamin E: result in words; for IC50: 10 μM copper
Protocol: Human low density lipoprotein was dialyzed, incubated with or without inhibitor, and then treated with 10 μM copper to induce lipid peroxidation for several hours. The extent of lipid peroxidation was determined by the amount of malondialdehyde produced, which was determined by reaction with thiobarbituric acid as described above.

[3] = Oxygen Stability Index of edible oil; type: physicochemical; conditions: for antioxidant effectiveness in edible oil: result in words; for Hours to end-point: 110° C.
Protocol: The Oxygen Stability Index is used to measure the effectiveness of antioxidants in the stabilization of edible oils against oxidative degradation. The “Hours to end-point” indicate when a time/conductivity curve changes shape, with a sharp slope upturn at that time point. The temperature of the test, which measures conductivity of a solution into which oxidation products from the oil being tested is passed, is 110° C.

[4] = system: Ehrlich carcinoma, sarcoma 180, implanted murine carcinoma (IMC) tumors, Meth-A fibrosarcoma; experiment: Survival of mice bearing tumor cells; type: in vivo; conditions: injected intraperitoneally
Text: Such mice bearing tumor cells include, but are not limited to Ehrlich carcinoma, sarcoma 180, or implanted murine carcinoma (IMC) tumors, Meth-A fibrosarcoma or other tumors.

[5] = system: MDA-MB-435 estrogen receptor-negative human breast cancer cells; experiment: [3H] thymidine incorporation, estrogen receptor-negative cells; type: cell-based
Protocol: Human cancer cells, such as, but not limited to, MDA-MB-435 estrogen receptor-negative human breast cancer cells are incubated in the presence of varying concentrations of kombic acid or its derivatives. The incorporation of [^3H] thymidine into the DNA of the cells is measured.

[6] = system: MCF-7 estrogen receptor-positive human breast cancer cells; experiment: Proliferation of estrogen receptor-positive cells; type: cell-based; conditions: alone
Protocol: Human breast cancer cells are incubated in the presence and absence of kombic acid and its derivatives individually. The IC50 (the concentration of Kombic Acid or its derivatives required to inhibit cell proliferation by 50%) is then determined.

[7] = system: MCF-7 cells; experiment: Effect of excess estrogen on inhibition in steroid-depleted cells; type: cell-based, human; conditions: presence of estradiol
Text: The effect of Kombic Acid and its derivatives on the estrogen receptor is investigated. Human cancer cells in culture, such as, but not limited to, MCF-7 cells are depleted of steroids and treated with Kombic Acid, its derivatives, tocotrienols, or tamoxifen (used as a positive control) in the presence or absence of estradiol.

[8] = system: PKC; experiment: Protein kinase C activity; type: biochemical
[9] = system: PAP2 (ras-transformed NIH 3T3 mouse fibroblasts) cells; experiment: Proliferation of PAP2 cells; type: cell-based
[10] = Cholesterol lowering in animal models; type: in vivo
Text: (§1) Hypercholesterolemia associated with elevated LDL (low-density lipoprotein) cholesterol is a risk factor for CHD (coronary heart disease). LDL-cholesterol combined with oxidative stress can contribute to the formation and development of atherosclerotic plaques. To lower the risk of CHD, antioxidants such as Kombic Acid and its derivatives counteract LDL oxidation.

[11] = Plasma cholesterol and apoB in humans; type: in vivo
Text: as §1

[12] = system: HepG2 cells; experiment: Medium apoB of LDL-like lipoprotein secreting cells (ELISA); type: cell-based; conditions: nontoxic concentrations, serum-free medium
Protocol: The apoB-lowering potential of Kombic Acid and its derivatives is evaluated in cells that secrete and catabolize lipoproteins similar to LDL, for example, but not limited to HepG2 cells. Confluent cells are preincubated in serum-free medium, which inhibits cell proliferation and stimulates biosynthesis of LDL-like lipoproteins. They are subsequently incubated in the same medium in the presence or absence of Kombic Acid or its derivatives at the range of nontoxic concentrations. For each compound, the highest nontoxic concentration is predetermined by a viability assay, such as but not limited to the 3-(4,5-dimethylthiazol-2-yl)-2,5-diphenyltetrazolium bromide (MTT) viability assay. At the end of the incubation, changes in medium concentration of apoB B are evaluated by ELISA and compared with changes induced in the absence of kombic acid or its derivatives.

[13] = inhibitor concentration 0.156 μg/mL
[14] = inhibitor concentration 0.313 μg/mL
[15] = inhibitor concentration 0.625 μg/mL
[16] = inhibitor concentration 0.625 μg/mL, peroxidation (nmoles MDA) with inhibitor divided by without
[17] = read-out: IC50: mean +/− Standard Deviation
[18] = individual determinations, read-out: IC50: data

Row | Compound | IC50 [1] [µg/mL] | IC50 [2, 17] [µM] | IC50 [2, 18] | % Inhibition [1, 13] [%] | Remaining lipid peroxidation (fraction of control) [1, 13] | % Inhibition [1, 14] [%] | Remaining lipid peroxidation (fraction of control) [1, 14] | % Inhibition [1, 15] [%] | Remaining lipid peroxidation (fraction of control) [1, 16] | antioxidant activity compared with natural vitamin E [2] | antioxidant effectiveness in edible oil [3] | reversal of inhibition by excess estrogen [7] | further results
1 | CC(=CCCC(C)=CCc1cc(O)cc(C)c1O)CCC=C(C)CCC=C(C)C(=O)O [Kombic Acid, 16(2′,5′-dihydroxy-3′-methylphenyl)-2,6,10,14-tetramethyl-2,6,10,14-hexadecatetraenoic acid] | 0.20 (≈ 0.469 µM) | 5.2 | 7.8 µM and 2.1 µM and 2.2 µM and 8.5 µM and 5.2 µM | 36 | 0.64 | 89 | 0.11 | 90 | 0.10 | no significant difference in antioxidant activity | effective antioxidants | does not reverse the inhibition | antioxidant activity ([1]; result in words): very strong antioxidant activity; Hours to end-point ([3]; soybean oil + 40 ppm): 8.35 h and 8.85 h; Hours to end-point ([3]; soybean oil + 300 ppm): 15.55 h and 15.40 h; life of mice bearing tumor cells [4]: prolong the life of mice bearing tumor cells; proliferation ([3H] thymidine incorporation) ([5]; alone): inhibit the proliferation of these cells; interaction with tamoxifen ([5]; with tamoxifen): can act synergistically with tamoxifen; cell proliferation [6]: can inhibit the proliferation; PKC activity [8]: inhibitors of PKC activity; cell proliferation [9]: inhibit the proliferation of these cells; cholesterol-lowering effects [10]: produce cholesterol-lowering effects in animal models; plasma total and LDL cholesterol and apoB [11]: effective in reducing elevated plasma levels of total and LDL cholesterol as well as plasma apolipoprotein B (apoB) concentrations; medium apoB [12]: dose-dependent reduction of medium apoB B
2 | CC(C)(C)c1cc(O)ccc1O [TBHQ, tributyl-tert-hydroquinone, reference compound] |  |  |  |  |  |  |  |  |  |  | effective antioxidants |  | Hours to end-point ([3]; soybean oil + 200 ppm): 21.10 h and 19.85 h
3 | CC/C(=C(\c1ccccc1)c1ccc(OCCN(C)C)cc1)c1ccccc1 [tamoxifen] |  |  |  |  |  |  |  |  |  |  |  | does reverse the inhibition | 
4 | tocotrienols |  |  |  |  |  |  |  |  |  |  |  | does not reverse the inhibition | 

The next lines start with results.

Row | IC50 [1] [µg/mL] | IC50 [2, 17] [µM] | IC50 [2, 18] | Compound | % Inhibition [1, 13] [%] | Remaining lipid peroxidation (fraction of control) [1, 13] | % Inhibition [1, 14] [%] | Remaining lipid peroxidation (fraction of control) [1, 14] | % Inhibition [1, 15] [%] | Remaining lipid peroxidation (fraction of control) [1, 16] | antioxidant activity compared with natural vitamin E [2] | antioxidant effectiveness in edible oil [3] | reversal of inhibition by excess estrogen [7] | further results
5 | 0.31 (≈ 0.72 µM) |  |  | Cc1c(C)c2c(c(C)c1O)CCC(C)(CCCC(C)CCCC(C)CCCC(C)C)O2 (racemic) [dl-α-tocopherol, reference compound] | 8 | 0.92 | 50 | 0.50 | 66 | 0.34 | inhibit peroxidation equally as well as natural (d) vitamin E |  |  | 
6 |  | 4.6 | 5.1 µM (2×) and 3.5 µM | Cc1c(C)c2c(c(C)c1O)CC[C@@](C)(CCC[C@H](C)CCC[C@H](C)CCCC(C)C)O2 [d-α-tocopherol, reference compound] |  |  |  |  |  |  |  |  |  | 
